Results as given in the supplement of paper PMC10307832.

Key:
Assay in all cases: relative viability (nuclei count vs DMSO), 5 days (fraction); higher = more cells survive
COR-L23 = system: COR-L23
In short: (§1)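 Five library-drug doses in √10 steps were combined with a fixed anchor-drug dose, or a single drug was given alone, by pin tool to lung cancer cell lines in 1536-well plates the day after seeding. Nuclei were stained and counted after 5 days. Relative viability is the nuclei count in treated wells over that in vehicle wells, taken as the median of duplicate plates.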

NCI-H2023 = system: NCI-H2023
In short: as §1

BEN = system: BEN
In short: as §1

NCI-H1975 = system: NCI-H1975
In short: as §1

NCI-H1734 = system: NCI-H1734
In short: as §1

NCI-H460 = system: NCI-H460
In short: as §1

NCI-H1437 = system: NCI-H1437
In short: as §1

NCI-H1563 = system: NCI-H1563
In short: as §1

CAL-12T = system: CAL-12T
In short: as §1

NCI-H1355 = system: NCI-H1355
In short: as §1

NCI-H838 = system: NCI-H838
In short: as §1

SK-LU-1 = system: SK-LU-1
In short: as §1

LOU-NH91 = system: LOU-NH91
In short: as §1

NCI-H1793 = system: NCI-H1793
In short: as §1

NCI-H2085 = system: NCI-H2085
In short: as §1

NCI-H358 = system: NCI-H358
In short: as §1

NCI-H441 = system: NCI-H441
In short: as §1

NCI-H1651 = system: NCI-H1651
In short: as §1

HCC-366 = system: HCC-366
In short: as §1

LU99A = system: LU99A
In short: as §1

## Cc1sc2c(c1C)C(c1ccc(Cl)cc1)=N[C@@H](CC(=O)OC(C)(C)C)c1nnc(C)n1-2 [JQ1] + C[C@]1(O)C[C@@H](c2nc(-c3ccc4ccc(-c5ccccc5)nc4c3)c3c(N)nccn32)C1 [Linsitinib] (partner 1 µM)
COR-L23; first compound 0.04 µM
  relative viability: 0.931
COR-L23; first compound 0.1265 µM
  relative viability: 0.74
COR-L23; first compound 0.4 µM
  relative viability: 0.818
COR-L23; first compound 1.265 µM
  relative viability: 0.226
COR-L23; first compound 4 µM
  relative viability: 0.172
NCI-H2023; first compound 0.04 µM
  relative viability: 0.653
NCI-H2023; first compound 0.1265 µM
  relative viability: 0.576
NCI-H2023; first compound 0.4 µM
  relative viability: 0.379
NCI-H2023; first compound 1.265 µM
  relative viability: 0.207
NCI-H2023; first compound 4 µM
  relative viability: 0.157
BEN; first compound 0.04 µM
  relative viability: 0.886
BEN; first compound 0.1265 µM
  relative viability: 0.742
BEN; first compound 0.4 µM
  relative viability: 0.524
BEN; first compound 1.265 µM
  relative viability: 0.347
BEN; first compound 4 µM
  relative viability: 0.224
NCI-H1975; first compound 0.04 µM
  relative viability: 0.864
NCI-H1975; first compound 0.1265 µM
  relative viability: 0.835
NCI-H1975; first compound 0.4 µM
  relative viability: 0.723
NCI-H1975; first compound 1.265 µM
  relative viability: 0.434
NCI-H1975; first compound 4 µM
  relative viability: 0.379
NCI-H1734; first compound 0.04 µM
  relative viability: 0.831
NCI-H1734; first compound 0.1265 µM
  relative viability: 0.823
NCI-H1734; first compound 0.4 µM
  relative viability: 0.879
NCI-H1734; first compound 1.265 µM
  relative viability: 0.63
NCI-H1734; first compound 4 µM
  relative viability: 0.418
NCI-H460; first compound 0.04 µM
  relative viability: 0.661
NCI-H460; first compound 0.1265 µM
  relative viability: 0.54
NCI-H460; first compound 0.4 µM
  relative viability: 0.278
NCI-H460; first compound 1.265 µM
  relative viability: 0.0494
NCI-H460; first compound 4 µM
  relative viability: 0.0357
NCI-H1437; first compound 0.04 µM
  relative viability: 0.897
NCI-H1437; first compound 0.1265 µM
  relative viability: 0.804
NCI-H1437; first compound 0.4 µM
  relative viability: 0.481
NCI-H1437; first compound 1.265 µM
  relative viability: 0.228
NCI-H1437; first compound 4 µM
  relative viability: 0.18
NCI-H1563; first compound 0.04 µM
  relative viability: 1.28
NCI-H1563; first compound 0.1265 µM
  relative viability: 1.1
NCI-H1563; first compound 0.4 µM
  relative viability: 0.976
NCI-H1563; first compound 1.265 µM
  relative viability: 0.722
NCI-H1563; first compound 4 µM
  relative viability: 0.646
CAL-12T; first compound 0.04 µM
  relative viability: 0.793
CAL-12T; first compound 0.1265 µM
  relative viability: 0.794
CAL-12T; first compound 0.4 µM
  relative viability: 0.68
CAL-12T; first compound 1.265 µM
  relative viability: 0.275
CAL-12T; first compound 4 µM
  relative viability: 0.232
NCI-H1355; first compound 0.04 µM
  relative viability: 0.813
NCI-H1355; first compound 0.1265 µM
  relative viability: 0.817
NCI-H1355; first compound 0.4 µM
  relative viability: 0.814
NCI-H1355; first compound 1.265 µM
  relative viability: 0.574
NCI-H1355; first compound 4 µM
  relative viability: 0.351
NCI-H838; first compound 0.04 µM
  relative viability: 0.954
NCI-H838; first compound 0.1265 µM
  relative viability: 0.543
NCI-H838; first compound 0.4 µM
  relative viability: 0.74
NCI-H838; first compound 1.265 µM
  relative viability: 0.307
NCI-H838; first compound 4 µM
  relative viability: 0.229
SK-LU-1; first compound 0.04 µM
  relative viability: 1.16
SK-LU-1; first compound 0.1265 µM
  relative viability: 0.952
SK-LU-1; first compound 0.4 µM
  relative viability: 0.782
SK-LU-1; first compound 1.265 µM
  relative viability: 0.239
SK-LU-1; first compound 4 µM
  relative viability: 0.178
LOU-NH91; first compound 0.04 µM
  relative viability: 0.905
LOU-NH91; first compound 0.1265 µM
  relative viability: 0.777
LOU-NH91; first compound 0.4 µM
  relative viability: 0.579
LOU-NH91; first compound 1.265 µM
  relative viability: 0.474
LOU-NH91; first compound 4 µM
  relative viability: 0.489
NCI-H1793; first compound 0.04 µM
  relative viability: 0.936
NCI-H1793; first compound 0.1265 µM
  relative viability: 0.755
NCI-H1793; first compound 0.4 µM
  relative viability: 0.923
NCI-H1793; first compound 1.265 µM
  relative viability: 0.715
NCI-H1793; first compound 4 µM
  relative viability: 0.952
NCI-H2085; first compound 0.04 µM
  relative viability: 0.99
NCI-H2085; first compound 0.1265 µM
  relative viability: 0.652
NCI-H2085; first compound 0.4 µM
  relative viability: 0.642
NCI-H2085; first compound 1.265 µM
  relative viability: 0.687
NCI-H2085; first compound 4 µM
  relative viability: 0.453
NCI-H358; first compound 0.04 µM
  relative viability: 0.645
NCI-H358; first compound 0.1265 µM
  relative viability: 0.829
NCI-H358; first compound 0.4 µM
  relative viability: 0.715
NCI-H358; first compound 1.265 µM
  relative viability: 0.442
NCI-H358; first compound 4 µM
  relative viability: 0.45
NCI-H441; first compound 0.04 µM
  relative viability: 0.774
NCI-H441; first compound 0.1265 µM
  relative viability: 0.484
NCI-H441; first compound 0.4 µM
  relative viability: 0.579
NCI-H441; first compound 1.265 µM
  relative viability: 0.386
NCI-H441; first compound 4 µM
  relative viability: 0.306
NCI-H1651; first compound 0.04 µM
  relative viability: 0.776
NCI-H1651; first compound 0.1265 µM
  relative viability: 0.871
NCI-H1651; first compound 0.4 µM
  relative viability: 0.797
NCI-H1651; first compound 1.265 µM
  relative viability: 0.433
NCI-H1651; first compound 4 µM
  relative viability: 0.468
HCC-366; first compound 0.04 µM
  relative viability: 0.6
HCC-366; first compound 0.4 µM
  relative viability: 0.639
HCC-366; first compound 1.265 µM
  relative viability: 0.326
HCC-366; first compound 4 µM
  relative viability: 0.193
LU99A; first compound 0.04 µM
  relative viability: 0.573
LU99A; first compound 0.1265 µM
  relative viability: 0.516
LU99A; first compound 0.4 µM
  relative viability: 0.325
LU99A; first compound 1.265 µM
  relative viability: 0.292
LU99A; first compound 4 µM
  relative viability: 0.202
